Data as given in patent US20050209278A1, “Piperidinyl- and piperazinyl-sulfonylmethyl hydroxamic acids and their use as protease inhibitors” (priority 2002, published 2005).

Each molecule was assayed against T1, MMP-1 (Homo sapiens, UniProt P03956) (assay: In vitro MMP inhibition, Ki determination (fluorogenic substrate II)). Details: value not in parenthesis; read-out: MMP-1 Ki.
T1 construct: made in house; host or cells: MMP-1-transfected HT-1080 cells (spent media)
T1 sequence (P03956 100-469): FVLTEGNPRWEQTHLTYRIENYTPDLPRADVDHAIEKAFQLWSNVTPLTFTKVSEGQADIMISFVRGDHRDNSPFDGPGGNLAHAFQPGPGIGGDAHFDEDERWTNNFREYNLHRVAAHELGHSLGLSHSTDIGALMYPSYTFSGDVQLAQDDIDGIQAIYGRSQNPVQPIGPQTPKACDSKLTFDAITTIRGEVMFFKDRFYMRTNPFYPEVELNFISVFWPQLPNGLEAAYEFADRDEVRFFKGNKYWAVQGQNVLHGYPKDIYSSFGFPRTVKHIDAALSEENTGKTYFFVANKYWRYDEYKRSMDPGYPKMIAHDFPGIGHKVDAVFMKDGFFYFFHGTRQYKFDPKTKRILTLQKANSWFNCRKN
Assay type: biochemical
With `CCCCOc1ccc(N2CCN(S(=O)(=O)C3(C(=O)NO)CCN(c4ccc(N(C)C)cc4)CC3)CC2)cc1` [Example 241] the Ki was > 10 µM. `CCCCOc1ccc(N2CCN(S(=O)(=O)C3(C(=O)NO)CCN(C(=O)N(CC)CC)CC3)CC2)cc1` [Example 242] was tested, and the Ki was > 10 µM. With `CCCCOc1ccc(N2CCN(S(=O)(=O)C3(C(=O)NO)CCN(C(=O)N4CCCCC4)CC3)CC2)cc1` [Example 243] the Ki was > 10 µM. In the case of `CCCCOc1ccc(N2CCN(S(=O)(=O)C3(C(=O)NO)CCN(C(=O)N(C(C)C)C(C)C)CC3)CC2)cc1` [Example 244], the Ki is reported as > 10 µM. With `CCCCOc1ccc(N2CCN(S(=O)(=O)C3(C(=O)NO)CCN(Cc4nccn4C)CC3)CC2)cc1` [Example 245] the Ki was > 10 µM. For `CCCCOc1ccc(N2CCN(S(=O)(=O)C3(C(=O)NO)CCN(Cc4ccc(C)o4)CC3)CC2)cc1` [Example 246], the Ki was > 10 µM. For `CCCCOc1ccc(N2CCN(S(=O)(=O)C3(C(=O)NO)CCN(Cc4ncc[nH]4)CC3)CC2)cc1` [Example 247], the Ki was > 10 µM. `CCCCOc1ccc(N2CCN(S(=O)(=O)C3(C(=O)NO)CCN(c4ccc(OC)cc4)CC3)CC2)cc1` [Example 249] was tested, and the Ki was > 10 µM.
